Laboratory results: PMC6895141, “Antimicrobial Efficacy of Indolicidin Against Multi-Drug Resistant Enteroaggregative Escherichia coli in a Galleria mellonella Model” (Frontiers in Microbiology, 2019)
Values after ≈ are worked out from the molar mass of the structure shown.

Legend:
[1] = tested on: MDR-EAEC isolate KY941936.1 (MDR 1); assay: In vitro antibiotic susceptibility testing; type: cell-based, enteroaggregative Escherichia coli; design: key to Antibiotic Susceptibility testing / MIC Values, class symbol: S – Sensitive; R- Resistant; details: for Antibiotic Susceptibility testing: CLSI 2018; for MIC Values, class symbol: cells printed as S; for MIC: numeric cells
Excerpt: (§1) The typical EAEC strains, isolated from the fecal samples of human infants with GenBank accession numbers, KY941936.1 (MDR 1); KY941937.1 (MDR 2); and KY941938.1 (MDR 3), available at Division of Veterinary Public Health, Indian Veterinary Research Institute, Bareilly were re-validated as described earlier ([Vijay et al., 2015]) and tested for antibiotic susceptibility ([Clinical and Laboratory Standards Institute [CLSI], 2018]). E. coli ATCC 25922 used as quality control strain was provided by the Department of Veterinary Public Health, College of Veterinary and Animal Sciences, Pookode, India. These bacterial strains were grown on nutrient agar medium at 37°C.

[2] = tested on: MDR-EAEC isolate KY941937.1 (MDR 2); assay: In vitro antibiotic susceptibility testing; type: cell-based, enteroaggregative Escherichia coli; design: key to Antibiotic Susceptibility testing / MIC Values, class symbol: S – Sensitive; R- Resistant; details: for Antibiotic Susceptibility testing: CLSI 2018; for MIC Values, class symbol: cells printed as S; for MIC: numeric cells
Excerpt: as §1

[3] = tested on: MDR-EAEC isolate KY941938.1 (MDR 3); assay: In vitro antibiotic susceptibility testing; type: cell-based, enteroaggregative Escherichia coli; design: key to Antibiotic Susceptibility testing / MIC Values, class symbol: S – Sensitive; R- Resistant; details: for Antibiotic Susceptibility testing: CLSI 2018; for MIC Values, class symbol: cells printed as S; for MIC: numeric cells
Excerpt: as §1

MDR-EAEC isolates = assay: In vitro dose- and time-dependent killing kinetics; type: cell-based, enteroaggregative Escherichia coli; details: Meropenem 10 μg/ml
Experimental: The in vitro growth kinetics of MDR-EAEC isolates was evaluated by incubating the log-phase bacterial cultures of each MDR-EAEC isolate (ca. 1 × 10^7 CFU/mL) in CA-MH broth with MIC (1X and 2X) concentrations of Indolicidin, in triplicates (Supplementary File S8). The desired bacterial numbers for each MDR-EAEC isolate and Indolicidin were suspended in CA-MH broth as follows: Group I, 10^7 CFU of MDR-EAEC (50 μL) with 1X MIC Indolicidin (50 μL); Group II, 10^7 CFU of MDR- EAEC (50 μL) with MBC Indolicidin (50 μL); Group III, 10^7 CFU of MDR- EAEC (50 μL) with Meropenem (10 μg/ml; 50 μL); Group IV, 10^7 CFU of MDR- EAEC (50 μL) with CA-MH broth (50 μL) and Group V, 10^7 CFU of MDR- EAEC (50 μL) with 4X MIC Indolicidin (50 μL). To enumerate the antibacterial effect of Indolicidin on MDR-EAEC isolates, an aliquot at 10 μL from all the five groups were drawn at 0, 30, 60, 90, 120, 150, 180 min, 24, 48, and 72 h. These aliquots were serially diluted 10-fold in normal saline solution (prepared using 0.90% of sodium chloride, HiMedia Laboratories); the last three dilutions placed on EMB agar plates containing 100 μg of ampicillin ([Miles et al., 1938]) were counted after 24 h of incubation at 37°C, and the bacterial counts were expressed as log10CFU/mL. […]

MDR-EAEC strains = assay: Survival of MDR-EAEC infected G. mellonella larvae; type: in vivo, Galleria mellonella; details: larvae infected with LD50 dose (10^6 CFU) MDR-EAEC cocktail, treated 3 h pi with MIC dose (10 μL); upto 120 h pi; n = 40 larvae per group
Experimental: In vivo assays were performed using the final instar of G. mellonella larvae that were stored in wood shavings at 15°C in the dark prior to the experiment ([Morgan et al., 2014]). The larvae were kept in a germ-free environment and were provided with ad libitum food during the course of experiment. Initially, LD50 dose of each MDR-EAEC strains was determined in G. mellonella larvae, and the validated LD50 dose was used further in the in vivo studies to evaluate the antibacterial effect of Indolicidin (Supplementary File S9) by injection with a Hamilton syringe (26 gage) via the last right pro-leg.
(§2) Galleria mellonella larvae (n = 40 larvae per group) were grouped as follows: Group I (infected group), Groups II and III (infection + treatment groups), Group IV (PBS control), and Group V (AMP control). Larvae from groups I to III were infected with cocktail of MDR-EAEC strains (LD50 dose; 10 μL); groups II and III were administered 3 h post-infection (pi) with MIC dose (10 μL) of Indolicidin and Meropenem, respectively; Group IV were injected with sterile PBS whereas, group V was administered with MIC dose of Indolicidin.

G. mellonella larvae = assay: Melanization assay in G. mellonella larvae; type: in vivo, Galleria mellonella; details: infected larvae treated 3 h pi; absorbance 450 nm of hemolymph, 6 to 96 h pi
Experimental: as §2
For determination of the melanin production, an immune marker, the G. mellonella (n=3 larvae per group) were investigated at an interval of 6 h pi for 24 h, followed by 24 h interval till 96 h. An aliquot of the pooled haemolymph (100 µl) was transferred into 96-well microtiter plate for measuring the optical density (OD) at a wavelength of 450 nm using ELISA plate reader (Thermo Scientific Multiskan GO) with OD values of haemolymph collected from apparently healthy un-inoculated larvae as the background control.

| Molecule | Antibiotic Susceptibility testing [1] | MIC Values, class symbol [1] | Antibiotic Susceptibility testing [2] | MIC Values, class symbol [2] | Antibiotic Susceptibility testing [3] | MIC Values, class symbol [3] | MIC ([2]; Escherichia coli) | MIC ([3]; Escherichia coli) | other results |
| --- | --- | --- | --- | --- | --- | --- | --- | --- | --- |
| C[C@@H](O)[C@H]1C(=O)N2C(C(=O)O)=C(SCCN=CN)C[C@H]12 [IMI, Imipenem] | S | S | S | S | S | S |  |  |  |
| O=C(N[C@H](CO)[C@H](O)c1ccc([N+](=O)[O-])cc1)C(Cl)Cl [CL, Chloramphenicol] | S | S | S | S | S | S |  |  |  |
| CN(C)[C@@H]1C(O)=C(C(N)=O)C(=O)[C@@]2(O)C(O)=C3C(=O)c4c(O)cccc4[C@@](C)(O)[C@H]3C[C@@H]12 [TE, Tetracycline] | R |  | R |  | R |  | 2 µM (≈ 0.889 µg/mL) | 30 µM (≈ 13.3 µg/mL) | MIC ([1]; Escherichia coli): 60 µM (≈ 26.7 µg/mL) |
| C[C@@H](O)[C@H]1C(=O)N2C(C(=O)O)=C(S[C@@H]3CN[C@H](C(=O)N(C)C)C3)[C@H](C)[C@H]12 [Meropenem] |  |  |  |  |  |  |  |  | time to similar inhibition (complete elimination) in time-kill kinetic assay (MDR-EAEC isolates): 60 min; survival rate (MDR-EAEC strains): 85%; melanization (G. mellonella larvae): the melanization was lower at 6 h pi, reached its peak at 18 h pi and thereafter gradually declined |
| Colistin sulphate | S | S | S | S | S | S |  |  |  |
| O=C(O)c1cn(C2CC2)c2cc(N3CCNCC3)c(F)cc2c1=O [CIP, Ciprofloxacin] |  |  |  |  |  |  | 120 µM (≈ 39.8 µg/mL) | 60 µM (≈ 19.9 µg/mL) |  |
| Cc1cc(NS(=O)(=O)c2ccc(N)cc2)no1 [SXT, Sulfamethoxazole] | R |  | S |  | R |  |  |  |  |
| Co-trimoxazole [COT] | R |  | R |  | R |  |  |  | MIC [1]: >240 µM; MIC [2]: >240 µM; MIC [3]: >240 µM |
| CC1(C)S[C@@H]2[C@H](NC(=O)[C@H](N)c3ccccc3)C(=O)N2[C@H]1C(=O)O [AMP, Ampicillin] | R |  | R |  | R |  | > 240 µM | > 240 µM | MIC ([1]; Escherichia coli): > 240 µM |
| CNC(C)C1CCC(N)C(OC2C(N)CC(N)C(OC3OCC(C)(O)C(NC)C3O)C2O)O1 (centres unmarked) [GEN, Gentamicin] | S | S | S | S | S | S |  |  |  |
| CO/N=C(\C(=O)N[C@@H]1C(=O)N2C(C(=O)O)=C(CSc3nc(=O)c(=O)[nH]n3C)CS[C@H]12)c1csc(N)n1 [CTR, Ceftriaxone] | S | S | R |  | R |  | > 240 µM | > 240 µM |  |
